Source: PMC4125136, “A Novel Dual Allosteric Activation Mechanism of Escherichia coli ADP-Glucose Pyrophosphorylase: The Role of Pyruvate” (PLoS ONE, 2014)
Where “and” joins values, the source holds several entries; their conditions need not be identical. Identical values can stand only once. Like-named read-outs stand apart in the source and are kept apart here.

Columns and labels:
[1] = molecular target: T1, E. coli ADP-Glc PPase (Escherichia coli, UniProt P0A6V1); test: ADP-Glc synthesis assay (Pi formation, Malachite Green) with Hill-equation kinetic characterization; format: biochemical; details: for IC50: read-out: I 0.5 for AMP
T1 construct: made in house; host or cells: E. coli BL21 (DE3)
Method: Synthesis of ADP-Glc was assayed by following the formation of Pi (after hydrolysis of pyrophosphate by inorganic pyrophosphatase) as previously described. Unless otherwise stated, a 50 µl reaction mixture contained 100 mM HEPES (pH 8.0), 10 mM MgCl2, 1.5 mM ATP, 0.2 mg/ml bovine serum albumin, 0.5 mU/µl yeast inorganic pyrophosphatase, and the given amount of enzyme. Assays were initiated with 1 mM Glc-1P. If mentioned, a given amount of Pyr, Fru-1,6-P2, and/or AMP was also included. After incubation for 10 min at 37°C, addition of Malachite Green reagent terminated the reaction. The complex formed with the released Pi was measured at 630 nm with an ELISA EMax detector (Molecular Devices). Sodium pyrophosphate was used as standard. One unit of enzyme activity was defined as the amount producing of 1 µmol of product in 1 min under the specified conditions.
Data of enzyme activity were plotted versus effector concentration. Kinetic parameters from the Hill equation such as Hill coefficient (n H), maximal velocity (V max), as well as the activator substrate or inhibitor concentrations giving 50% of the maximal activation (A 0.5), velocity (S 0.5), or inhibition (I 0.5), were acquired by fitting the data with a non-linear least-squares algorithm using the program Origin 7.0 (OriginLab). Parameters are the mean of at least three independent sets of data, reproducible within ±10%. Sample standard deviations of the data were calculated from the Hill equation fitting by using the Levenberg–Marquardt method.

[2] = molecular target: T1, E. coli ADP-Glc PPase; details: cited from earlier work
[3] = tested on: A. tumefaciens ADP-Glc PPase; set-up: method as in PMID 9721178; details: cited from earlier work
[4] = F. 50 mM Pyr +150 µM Fru-1,6-P2
[5] = 50 µM AMP and 100 µM Fru-1,6-P2 (Figure 5)

T1 sequence (P0A6V1 whole entry): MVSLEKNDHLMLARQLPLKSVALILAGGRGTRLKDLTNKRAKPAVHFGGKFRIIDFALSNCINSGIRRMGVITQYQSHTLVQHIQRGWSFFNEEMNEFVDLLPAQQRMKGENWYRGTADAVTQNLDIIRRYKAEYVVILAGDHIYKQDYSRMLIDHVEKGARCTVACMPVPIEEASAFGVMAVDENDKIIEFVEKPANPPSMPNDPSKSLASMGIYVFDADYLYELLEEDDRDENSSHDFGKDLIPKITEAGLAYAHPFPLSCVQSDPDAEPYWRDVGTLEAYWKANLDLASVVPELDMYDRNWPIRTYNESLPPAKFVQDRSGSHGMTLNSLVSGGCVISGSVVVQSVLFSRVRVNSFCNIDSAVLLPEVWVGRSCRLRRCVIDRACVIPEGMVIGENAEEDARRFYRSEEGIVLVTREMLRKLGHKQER

Nc1ncnc2c1ncn2[C@@H]1O[C@H](COP(=O)(O)O)[C@@H](O)[C@H]1O [AMP]
n H of AMP inhibition ([1]; 100 µM Fru-1,6-P2, absence of Pyr): 1.7 | IC50 ([1]; 100 µM Fru-1,6-P2, absence of Pyr (Figure 4)): 30 µM | remaining activity at maximum inhibition ([1]; 100 µM Fru-1,6-P2, both in absence and presence of 20 mM Pyr): around 10% | n H of AMP inhibition ([1]; 100 µM Fru-1,6-P2, presence of 20 mM Pyr): 2.4 | IC50 ([1]; 100 µM Fru-1,6-P2, presence of 20 mM Pyr (Figure 4)): 110 µM

O=C(COP(=O)(O)O)[C@@H](O)[C@H](O)[C@H](O)COP(=O)(O)O [Fru-1,6-P2, Fructose-1,6-bisphosphate]
A 0.5 for Fru-1,6-P2 [2]: sub-millimolar range | increase of enzyme activity [2]: ~50 fold | improvement of apparent affinity of the enzyme for Pyr ([1]; 30 µM Fru-1,6-P2 (Figure 1)): 8.4 fold | V max ([1]; E. 10 µM Fru-1,6-P2): 6.21±0.19 U/mg | V max ([1]; G. 150 µM Fru-1,6-P2): 63±4 U/mg | V max ([1]; I. 2 mM Fru-1,6-P2): 108±6 U/mg | EC50 ([1]; absence of Pyr (Figure 3A), read-out: A 0.5 for Fru-1,6-P2): 120 µM | EC50 ([1]; as stated in legend of Figure 5, read-out: A 0.5 for Fru-1,6-P2): 100 µM | decrease of Pyr A 0.5 ([1]; at 50 µM Fru-1,6-P2): 5 fold | EC50 ([1]; presence of 2.5 mM Pyr (Figure 3A), read-out: A 0.5 for Fru-1,6-P2): 70 µM

Nc1ncnc2c1ncn2[C@@H]1O[C@H](COP(=O)(O)OP(=O)(O)OP(=O)(O)O)[C@@H](O)[C@H]1O [ATP-Mg]
ATP-Mg S 0.5 ([1]; A. No effector): 6.49 ± 0.21 mM | ATP-Mg n H ([1]; A. No effector): 1.5 | ATP-Mg S 0.5 ([1]; B. 25 mM Pyr): 1.67 ± 0.08 mM | ATP-Mg n H ([1]; B. 25 mM Pyr): 2.5 | ATP-Mg S 0.5 ([1]; C. 50 mM Pyr): 1.05 ± 0.06 mM | ATP-Mg n H ([1]; C. 50 mM Pyr): 2.2 | ATP-Mg S 0.5 ([1]; D. 25 mM Pyr +10 µM Fru-1,6-P2): 0.99 ± 0.07 mM | ATP-Mg n H ([1]; D. 25 mM Pyr +10 µM Fru-1,6-P2): 3.6 | ATP-Mg S 0.5 ([1]; E. 10 µM Fru-1,6-P2): 5.02 ± 0.25 mM | ATP-Mg n H ([1]; E. 10 µM Fru-1,6-P2): 2.1 | ATP-Mg S 0.5 [1, 4]: 0.37 ± 0.03 mM | ATP-Mg n H [1, 4]: 2.4 | ATP-Mg S 0.5 ([1]; G. 150 µM Fru-1,6-P2): 1.31 ± 0.09 mM | ATP-Mg n H ([1]; G. 150 µM Fru-1,6-P2): 3.2 | ATP-Mg S 0.5 ([1]; I. 2 mM Fru-1,6-P2): 0.43 ± 0.02 mM | ATP-Mg n H ([1]; I. 2 mM Fru-1,6-P2): 2.1 | ATP-Mg S 0.5 ([1]; J. 50 mM Pyr +2 mM Fru-1,6-P2): 0.19 ± 0.02 mM | ATP-Mg n H ([1]; J. 50 mM Pyr +2 mM Fru-1,6-P2): 1.4

CC(=O)C(=O)O [Pyr, pyruvate]
Pyr activation [3]: 5 fold | EC50 ([3]; read-out: A 0.5 for Pyr): 130 µM | EC50 ([2]; weak activation, read-out: A 0.5 for Pyr): > 10000 µM | activation of the partially inhibited enzyme [1, 5]: 4 fold | nH of Pyr activation [1, 5]: 1.2 | EC50 ([1]; 50 µM AMP and 100 µM Fru-1,6-P2 (Figure 5), read-out: A 0.5 for Pyr): 2760 µM | absolute activity (reference for relative activity, Figure 4) ([1]; 20 mM Pyr with 100 µM Fru-1,6-P2, control without Pyr 31.2 U/mg): 61.8 U/mg | decrease of apparent affinity for AMP ([1]; 20 mM Pyr, 100 µM Fru-1,6-P2): 3 fold | enzyme more active if Pyr was present (relative activities) ([1]; 20 mM Pyr, 100 µM Fru-1,6-P2, 0.05–0.15 mM AMP range): up to 3 fold | increase of affinity for Glc-1P ([1]; 25 mM Pyr combined with 10 µM Fru-1,6-P2, compared to absence of any effector): 4.1 fold | lowering of S 0.5 for ATP ([1]; 25 mM Pyr combined with 10 µM Fru-1,6-P2, vs no effector): 6.6 fold | lowering of S 0.5 for Glc-1P ([1]; 25 mM Pyr vs no effector): 1.7 fold | reduction of S 0.5 for ATP ([1]; 25 mM Pyr vs no effector): 3.9 fold | lowering of S 0.5 for Glc-1P ([1]; 50 mM Pyr vs no effector): 2.6 fold | reduction of S 0.5 for ATP ([1]; 50 mM Pyr vs no effector): 6.2 fold | increase of enzyme activity ([1]; 100 mM Pyr (highest concentration tested), no other effector): 3.3 fold | V max ([1]; B. 25 mM Pyr): 3.93±0.21 U/mg | V max ([1]; C. 50 mM Pyr): 5.31±0.19 U/mg | V max ([1]; D. 25 mM Pyr +10 µM Fru-1,6-P2): 31±2 U/mg | V max [1, 4]: 104±5 U/mg | A 0.5 for Pyr ([1]; Figure 2, at increasing concentrations of Fru-1,6-P2): low mM range | V max ([1]; J. 50 mM Pyr +2 mM Fru-1,6-P2): 110±5 U/mg | increase in V max by Pyr ([1]; Pyr alone): ~4 fold and 5 fold | nH of Pyr activation ([1]; absence of any other regulatory effector (Figure 1)): 1.03 | EC50 ([1]; absence of any other regulatory effector (Figure 1), read-out: A 0.5 for Pyr): 25000 µM | EC50 ([1]; at 50 µM Fru-1,6-P2, read-out: A 0.5 for Pyr): 5000 µM | maximal activation by Pyr ([1]; in presence of 10 µM or 30 µM Fru-1,6-P2 (Figure 1)): ~6 fold | EC50 ([1]; presence of 1 µM PLP (data not shown), read-out: A 0.5 for Pyr): 3700 µM

Cc1ncc(COP(=O)(O)O)c(C=O)c1O [PLP, pyridoxal-5′-phosphate]
EC50 ([1]; absence of Pyr (Figure 3B), read-out: A 0.5 for PLP): 2.7 µM | EC50 ([1]; presence of 10 mM Pyr (Figure 3B), read-out: A 0.5 for PLP): 1 µM

O=P(O)(O)OC1O[C@H](CO)[C@@H](O)[C@H](O)[C@H]1O (stereo partly drawn) [Glc-1P]
Glc-1P S 0.5 ([1]; A. No effector): 0.95 ± 0.07 mM | Glc-1P n H ([1]; A. No effector): 1.1 | Glc-1P S 0.5 ([1]; B. 25 mM Pyr): 0.57 ± 0.05 mM | Glc-1P n H ([1]; B. 25 mM Pyr): 1.0 | Glc-1P S 0.5 ([1]; C. 50 mM Pyr): 0.37 ± 0.02 mM | Glc-1P n H ([1]; C. 50 mM Pyr): 0.9 | Glc-1P S 0.5 ([1]; D. 25 mM Pyr +10 µM Fru-1,6-P2): 0.23 ± 0.02 mM | Glc-1P n H ([1]; D. 25 mM Pyr +10 µM Fru-1,6-P2): 1.3 | Glc-1P S 0.5 ([1]; E. 10 µM Fru-1,6-P2): 0.77 ± 0.04 mM | Glc-1P n H ([1]; E. 10 µM Fru-1,6-P2): 1.0 | Glc-1P S 0.5 [1, 4]: 0.09 ± 0.01 mM | Glc-1P n H [1, 4]: 1.1 | Glc-1P S 0.5 ([1]; G. 150 µM Fru-1,6-P2): 0.12 ± 0.01 mM | Glc-1P n H ([1]; G. 150 µM Fru-1,6-P2): 1.2 | Glc-1P S 0.5 ([1]; I. 2 mM Fru-1,6-P2): 0.09 ± 0.01 mM | Glc-1P n H ([1]; I. 2 mM Fru-1,6-P2): 1.3 | Glc-1P S 0.5 ([1]; J. 50 mM Pyr +2 mM Fru-1,6-P2): 0.11 ± 0.01 mM | Glc-1P n H ([1]; J. 50 mM Pyr +2 mM Fru-1,6-P2): 1.0
